{"source": "BindingDB's records for doi:10.1021/jm00041a023", "about": "(Merck Research Laboratories, 1994)", "target": "T1, Gag-Pol polyprotein [588-1027]/[588-1147] (Human immunodeficiency virus 1, UniProt P04585)", "T1 construct": "588-1027; 588-1147", "test": "HIV-1 RT Assay", "conditions": "pH 8.2", "excerpt": "The IC50 of reverse transcriptase is the concentration that inhibits 50% of recombinant HIV-1 RT RNA-directed DNA polymerase activity in vitro.", "data": [{"smiles": "O=C1Nc2ccc(Cl)cc2C(C#Cc2cc([N+](=O)[O-])ccn2)(C2CC2)N1", "note": "(stereo unspecified) [6-chloro-4-cyclopropyl-4-[2-(4-nitropyridin-2-yl)ethynyl]-1,2,3,4-tetrahydroquinazolin-2-one]", "values": [{"measurement": "IC50", "result": "> 10", "unit": "µM"}]}]}
